Patent US9133128B2, “Pyrazole derivatives as cannabinoid receptor 1 antagonists” (Research Triangle Institute, priority 2011, dated 2015)
Like-named read-outs stand apart in the source and are kept apart here. Blank lines part the entries; values can stand above or below the compound they belong to.

How the values were obtained:
CB1 [1] = molecular target: T1, CB1 (Homo sapiens, UniProt P21554); assay: CB1 activated Gαq16-coupled intracellular calcium mobilization assay in CHO-K1 cells (apparent affinity Ke); type: cell-based; conditions: calcium mobilization
T1 construct: expressed in transfected cells; host or cells: CHO-K1 (membranes)
T1 sequence (P21554 whole entry): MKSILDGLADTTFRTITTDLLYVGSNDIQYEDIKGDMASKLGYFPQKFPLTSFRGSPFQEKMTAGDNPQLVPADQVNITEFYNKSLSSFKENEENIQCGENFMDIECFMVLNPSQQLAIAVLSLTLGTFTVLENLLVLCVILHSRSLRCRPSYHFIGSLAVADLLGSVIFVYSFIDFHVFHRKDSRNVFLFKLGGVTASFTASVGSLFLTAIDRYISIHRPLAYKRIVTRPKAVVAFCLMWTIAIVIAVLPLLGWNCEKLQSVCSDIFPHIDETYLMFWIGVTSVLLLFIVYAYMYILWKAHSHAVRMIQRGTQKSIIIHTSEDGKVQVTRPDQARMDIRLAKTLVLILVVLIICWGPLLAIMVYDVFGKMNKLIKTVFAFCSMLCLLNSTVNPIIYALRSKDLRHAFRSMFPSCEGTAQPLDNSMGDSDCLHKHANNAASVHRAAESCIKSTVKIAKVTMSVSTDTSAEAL

CB2 = molecular target: T2, CB2 (Homo sapiens, UniProt P34972); assay: Displacement of [3H]CP55940 in membranes of CHO-K1 cells over-expressing CB2; type: binding
T2 construct: expressed in transfected cells; host or cells: CHO-K1 (membranes)
T2 sequence (P34972 whole entry): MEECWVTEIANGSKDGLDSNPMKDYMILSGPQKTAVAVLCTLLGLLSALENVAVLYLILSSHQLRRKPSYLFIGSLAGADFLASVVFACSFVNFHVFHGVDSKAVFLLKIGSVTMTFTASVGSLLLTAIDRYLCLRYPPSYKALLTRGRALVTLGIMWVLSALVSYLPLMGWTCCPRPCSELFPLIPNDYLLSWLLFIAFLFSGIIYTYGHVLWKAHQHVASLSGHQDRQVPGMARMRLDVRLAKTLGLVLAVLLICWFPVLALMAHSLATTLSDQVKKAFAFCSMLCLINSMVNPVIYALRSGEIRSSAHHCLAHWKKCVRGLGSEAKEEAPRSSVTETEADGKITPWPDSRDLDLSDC
Experimental: All compounds were characterized by H^1 NMR and evaluated using a calcium mobilization assay. Each compound was pharmacologically characterized using a functional fluorescent CB1 activated Gαq16-coupled intracellular calcium mobilization assay in CHO-K1 cells as has been previously described and apparent affinity (Ke) values were determined. See Zhang et al., J. Med. Chem. 2010, 53, 7048, which is incorporated herein by reference. Further characterization of select compounds was performed using radioligand displacement of [3H]1 and equilibrium dissociation constant (Ki) values were determined. Selectivity of these compounds at CB1 versus CB2 was also determined by obtaining Ki values at either receptor using displacement of [3H]CP55940 in membranes of CHO-K1 cells over-expressing either receptor. Data reported are average values from 3-6 measurements.
Select compounds were chosen for further study in radioligand displacement assays using radiolabeled rimonobant, SR141716 ([^3H]1). […] Selectivity against the CB2 receptor was determined by comparing the compound displacement of radiolabeled CP55940, which is a cannabinoid known to act as a full agonist at both CB1 and CB2 receptors. In general, tested compounds were selective for CB1 over CB2.

CB1 [2] = molecular target: T1, CB1; assay: Displacement of [3H]CP55940 in membranes of CHO-K1 cells over-expressing CB1; type: binding; conditions: for Binding Selectivity using CP55940 Displacement: CB2 Ki over CB1 Ki; for Ki: read-out: Ki (nM) v. [3H] CP55940 at CB1
[3] = Table 4, read-out: Ke (nM) at CB1
[4] = Table 5, read-out: Ke (nM) at CB1
[5] = Table 2, apparent affinity, read-out: Ke CB1
[6] = Table 5, read-out: Ki (nM) v. [3H] CP55940 at CB2
[7] = Table 4, read-out: Ki (nM) v. [3H] CP55940 at CB2

Compound: Cc1c(C(=O)NCCCCCCCNS(N)(=O)=O)nn(-c2ccc(Cl)cc2Cl)c1-c1ccc(Cl)cc1 [5-(4-chlorophenyl)-1-(2,4-dichlorophenyl)-4-methyl-N-[7-(sulfamoylamino)heptyl]-1H-pyrazole-3-carboxamide]
Kb (CB1 [1]; [5]): 304 nM

Compound: Cc1c(C(=O)N[C@H]2CC[C@H](NS(N)(=O)=O)CC2)nn(-c2ccc(Cl)cc2Cl)c1-c1ccc(Cl)cc1 [5-(4-chlorophenyl)-1-(2,4-dichlorophenyl)-4-methyl-N-[(1r,4r)-4-(sulfamoylamino)cyclohexyl]-1H-pyrazole-3-carboxamide]
Kb (CB1 [1]; [5]): 9430 nM

Compound: CCCCOC(=O)N1CCC(NC(=O)c2nn(-c3ccc(Cl)cc3Cl)c(-c3ccc(Cl)cc3)c2C)CC1 [OC4H9, Butyl 4-[5-(4-chlorophenyl)-1-(2,4-dichlorophenyl)-4-methyl-1H-pyrazole-3-amido]piperidine-1-carboxylate]
Kb (CB1 [1]; [4]): 88 nM

Compound: Cc1c(C(=O)NCc2ccc(CNS(N)(=O)=O)cc2)nn(-c2ccc(Cl)cc2Cl)c1-c1ccc(Cl)cc1 [5-(4-chlorophenyl)-1-(2,4-dichlorophenyl)-4-methyl-N-({4-[(sulfamoylamino)methyl]phenyl}methyl)-1H-pyrazole-3-carboxamide]
Kb (CB1 [1]; [5]): 376 nM

Compound: Cc1c(C(=O)NCc2ccc(CNS(C)(=O)=O)cc2)nn(-c2ccc(Cl)cc2Cl)c1-c1ccc(Cl)cc1 [5-(4-chlorophenyl)-1-(2,4-dichlorophenyl)-N-{[4-(methanesulfonamidomethyl)phenyl]methyl}-4-methyl-1H-pyrazole-3-carboxamide]
Kb (CB1 [1]; [5]): 2930 nM

Compound: Cc1c(C(=O)N2CCC(O)(c3ccccc3)CC2)nn(-c2ccc(Cl)cc2Cl)c1-c1ccc(C#N)cc1 [CN, phenyl, OH, 4-[1-(2,4-dichlorophenyl)-3-[(4-hydroxy-4-phenylpiperidin-1-yl)carbonyl]-4-methyl-1H-pyrazol-5-yl]benzonitrile]
Kb (CB1 [1]; [3]): 907 nM

Compound: 4-C-5-(4-Chlorophenyl)-1-(2,4-dichlorophenyl)-4-methyl-1H-pyrazole-3-1-N-propylpiperidine-1,4-diamido [NH(n-propyl)]
Kb (CB1 [1]; [4]): 66.5 nM

Compound: Cc1c(C(=O)N[C@H]2CC[C@H](NS(C)(=O)=O)CC2)nn(-c2ccc(Cl)cc2Cl)c1-c1ccc(Cl)cc1 [5-(4-chlorophenyl)-1-(2,4-dichlorophenyl)-4-methyl-N-[(1r,4r)-4-methanesulfonamido-cyclohexyl]-1H-pyrazole-3-carboxamide]
Kb (CB1 [1]; [5]): >10000 nM

Compound: Cc1c(C(=O)NCc2cccc(CNS(C)(=O)=O)c2)nn(-c2ccc(Cl)cc2Cl)c1-c1ccc(Cl)cc1 [5-(4-chlorophenyl)-1-(2,4-dichlorophenyl)-N-{[3-(methanesulfonamidomethyl)phenyl]methyl}-4-methyl-1H-pyrazole-3-carboxamide]
Kb (CB1 [1]; [5]): 2830 nM

Compound: Cc1c(C(=O)NCC2CCC(CNS(N)(=O)=O)CC2)nn(-c2ccc(Cl)cc2Cl)c1-c1ccc(Cl)cc1 (mixture of isomers)
Ki (CB2; Table 3, radioligand [3H]CP55940, read-out: Ki(μM) CB2 CP55940): 1790 nM

Compound: Cc1c(C(=O)NCc2cccc(CNS(N)(=O)=O)c2)nn(-c2ccc(Cl)cc2Cl)c1-c1ccc(Cl)cc1 [5-(4-chlorophenyl)-1-(2,4-dichlorophenyl)-4-methyl-N-({3-[(sulfamoylamino)methyl]phenyl}methyl)-1H-pyrazole-3-carboxamide]
Kb (CB1 [1]; [5]): 4200 nM

Compound: Cc1c(C(=O)NCCCN(C)CCCNS(C)(=O)=O)nn(-c2ccc(Cl)cc2Cl)c1-c1ccc(Cl)cc1 [5-(4-chlorophenyl)-1-(2,4-dichlorophenyl)-N-{3-[(3-methanesulfonamidopropyl)(methyl)amino]propyl}-4-methyl-1H-pyrazole-3-carboxamide]
Kb (CB1 [1]; [5]): 5340 nM

Other lines, results leading:

Kb (CB1 [1]; [3]): 608 nM
Compound: Cc1c(C(=O)N2CCC(NC(=O)NC(C)C)CC2)nn(-c2ccc(Cl)cc2Cl)c1-c1ccc(Cl)cc1 [Cl, H, NHC(O)NHCH(CH3)2, 1-(1-{[5-(4-Chlorophenyl)-1-(2,4-dichlorophenyl)-4-methyl-1H-pyrazol-3-yl]carbonyl}piperidin-4-yl)-3-(propan-2-yl)urea]

Kb (CB1 [1]; [4]): 4100 nM
Compound: Cc1c(C(=O)NC2CCN(C(N)=O)CC2)nn(-c2ccc(Cl)cc2Cl)c1-c1ccc(Cl)cc1 [NH2, 4-C-5-(4-chlorophenyl)-1-(2,4-dichlorophenyl)-4-methyl-1H-pyrazole-3-piperidine-1,4-diamido]

Ki (CB2; [6]): 13200 nM
Binding Selectivity using CP55940 Displacement (CB1 [2]; Table 5): 79.0
Ki (CB1 [2]; Table 5): 167 nM
Compound: CCNC(=O)N1CCC(NC(=O)c2nn(-c3ccc(Cl)cc3Cl)c(-c3ccc(Cl)cc3)c2C)CC1 [NHC2H5, 4-C-5-(4-chlorophenyl)-1-(2,4-dichlorophenyl)-4-methyl-1H-pyrazole-3-1-N-ethylpiperidine-1,4-diamido]

Ki (CB2; [6]): > 20000 nM
Ki (CB1 [2]; Table 5): 149 nM
Compound: CCCCNC(=O)N1CCC(NC(=O)c2nn(-c3ccc(Cl)cc3Cl)c(-c3ccc(Cl)cc3)c2C)CC1 [NH(n-butyl), 1-N-Butyl-4-C-5-(4-chlorophenyl)-1-(2,4-dichlorophenyl)-4-methyl-1H-pyrazole-3-piperidine-1,4-diamido]

Kb (CB1 [1]; [3]): 209 nM
Compound: Cc1c(C(=O)N2CCC(NC(=O)OC(C)(C)C)CC2)nn(-c2ccc(Cl)cc2Cl)c1-c1ccc(Cl)cc1 [Cl, H, NHC(O)O(t-butyl), tert-Butyl N-(1-{[5-(4-chlorophenyl)-1-(2,4-dichlorophenyl)-4-methyl-1H-pyrazol-3-yl]carbonyl}piperidin-4-yl)carbamate]

Ki (CB2; [7]): ≥ 20000 nM
Binding Selectivity using CP55940 Displacement (CB1 [2]; Table 4): 25.3
Ki (CB1 [2]; Table 4): 792 nM
Compound: Cc1c(C(=O)N2CCC(NC(=O)NC3CCCCC3)(c3ccccc3)CC2)nn(-c2ccc(Cl)cc2Cl)c1-c1ccc(Cl)cc1 [Cl, phenyl, NHC(O)NH(cyclohexyl), 3-(1-{[5-(4-chlorophenyl)-1-(2,4-dichlorophenyl)-4-methyl-1H-pyrazol-3-yl]carbonyl}-4-phenylpiperidin-4-yl)-1-cyclohexylurea]

Ki (CB2; [6]): 17200 nM
Binding Selectivity using CP55940 Displacement (CB1 [2]; Table 5): 175.7
Ki (CB1 [2]; Table 5): 97.9 nM
Compound: Cc1c(C(=O)NC2CCN(C(=O)NC(C)C)CC2)nn(-c2ccc(Cl)cc2Cl)c1-c1ccc(Cl)cc1 [NH(isopropyl), 4-C-5-(4-Chlorophenyl)-1-(2,4-dichlorophenyl)-4-methyl-1H-pyrazole-3-1-N-(propan-2-yl)piperidine-1,4-diamido]

Kb (CB1 [1]; [3]): 546 nM
Compound: CCCNC(=O)NC1CCN(C(=O)c2nn(-c3ccc(Cl)cc3Cl)c(-c3ccc(Cl)cc3)c2C)CC1 [Cl, H, NHC(O)NHC3H7, 1-(1-{[5-(4-Chlorophenyl)-1-(2,4-dichlorophenyl)-4-methyl-1H-pyrazol-3-yl]carbonyl}piperidin-4-yl)-3-propylurea]

Kb (CB1 [1]; [3]): 395 nM
Compound: CCCCNC(=O)NC1CCN(C(=O)c2nn(-c3ccc(Cl)cc3Cl)c(-c3ccc(Cl)cc3)c2C)CC1 [Cl, H, NHC(O)NHC4H9, 3-Butyl-1-(1-{[5-(4-chlorophenyl)-1-(2,4-dichlorophenyl)-4-methyl-1H-pyrazol-3-yl]carbonyl}piperidin-4-yl)urea]

Ki (CB2; [7]): 293 nM
Binding Selectivity using CP55940 Displacement (CB1 [2]; Table 4): 38.7
Ki (CB1 [2]; Table 4): 7.57 nM
Compound: CCCNC(=O)NC1(c2ccccc2)CCN(C(=O)c2nn(-c3ccc(Cl)cc3Cl)c(-c3ccc(Cl)cc3)c2C)CC1 [Cl, phenyl, NHC(O)NHC3H7, 1-(1-{[5-(4-chlorophenyl)-1-(2,4-dichlorophenyl)-4-methyl-1H-pyrazol-3-yl]carbonyl}-4-phenylpiperidin-4-yl)-3-propylurea]

Ki (CB2; [7]): 2410 nM
Binding Selectivity using CP55940 Displacement (CB1 [2]; Table 4): 62.2
Ki (CB1 [2]; Table 4): 38.8 nM
Compound: CCCCCCNC(=O)NC1(c2ccccc2)CCN(C(=O)c2nn(-c3ccc(Cl)cc3Cl)c(-c3ccc(Cl)cc3)c2C)CC1 [Cl, phenyl, NHC(O)NH(C6H13), 1-(1-{[5-(4-chlorophenyl)-1-(2,4-dichlorophenyl)-4-methyl-1H-pyrazol-3-yl]carbonyl}-4-phenylpiperidin-4-yl)-3-hexylurea]

Kb (CB1 [1]; [3]): 1920 nM
Compound: Cc1c(C(=O)N2CCC(N)CC2)nn(-c2ccc(Cl)cc2Cl)c1-c1ccc(Cl)cc1 [Cl, H, NH2, 1-{[5-(4-Chlorophenyl)-1-(2,4-dichlorophenyl)-4-methyl-1H-pyrazol-3-yl]carbonyl}piperidin-4-amine]

Kb (CB1 [1]; [3]): 146 nM
Compound: Cc1c(C(=O)N2CCC(NS(C)(=O)=O)CC2)nn(-c2ccc(Cl)cc2Cl)c1-c1ccc(Cl)cc1 [Cl, H, NHS(O)2CH3, N-(1-{[5-(4-Chlorophenyl)-1-(2,4-dichlorophenyl)-4-methyl-1H-pyrazol-3-yl]carbonyl}piperidin-4-yl)methanesulfonamide]

Ki (CB2; [7]): 182 nM
Binding Selectivity using CP55940 Displacement (CB1 [2]; Table 4): 12.1
Ki (CB1 [2]; Table 4): 15 nM
Compound: CCNC(=O)NC1(c2ccccc2)CCN(C(=O)c2nn(-c3ccc(Cl)cc3Cl)c(-c3ccc(Cl)cc3)c2C)CC1 [Cl, phenyl, NHC(O)NHCH2CH3, 1-(1-{[5-(4-chlorophenyl)-1-(2,4-dichlorophenyl)-4-methyl-1H-pyrazol-3-yl]carbonyl}-4-phenylpiperidin-4-yl)-3-ethylurea]
